Experimental data from paper PMC10971832, “New Phenol Derivatives from the Haima Cold Seep-Derived Fungus Aspergillus subversicolor CYH-17” (Marine Drugs, 2024).
Converted amounts (≈) assume the structure as drawn.

Key:
[1] = system: Bacillus subtilis BS01; assay: Antibacterial assay (MIC), B. subtilis; assay type: cell-based; details: Table S32, positive control ciprofloxacin
Excerpt: (§1) The bacteria Vibrio alginolyticus XSBZ14, Enterococcus faecalis ATCC 29212, Acinetobacter baumannii ATCC 19606, Escherichia coli ATCC 25922, Bacillus subtilis BS01, Klebsiella pneumoniae ATCC 13883, Exiguobacterium profundum Staphylococcus aureus ATCC 29213 and MRSA 107352 were used to measure antibacterial activity. The procedures of the antibacterial test were the same as Zhang. Ciprofloxacin was used as the positive control.

[2] = system: Exiguobacterium profundum; assay: Antibacterial assay (MIC), E. profundum; assay type: cell-based; details: Table S32, positive control ciprofloxacin
Excerpt: as §1

[3] = system: Enterococcus faecalis ATCC 29212; assay: Antibacterial assay (MIC), E. faecalis; assay type: cell-based; details: ATCC29212, Table S32, positive control ciprofloxacin
Excerpt: as §1

[4] = system: Acinetobacter baumannii ATCC 19606; assay: Antibacterial assay (MIC), A. baumannii; assay type: cell-based; details: ATCC19606, Table S32, positive control ciprofloxacin
Excerpt: as §1

[5] = system: Staphylococcus aureus ATCC 29213; assay: Antibacterial assay (MIC), S. aureus; assay type: cell-based; details: ATCC29213, Table S32, positive control ciprofloxacin
Excerpt: as §1

[6] = system: MRSA 107352; assay: Antibacterial assay (MIC), MRSA; assay type: cell-based; details: Staphylococcus aureus, Table S32, positive control ciprofloxacin
Excerpt: as §1

[7] = DPPH radical scavenging assay (antioxidant activity); details: Table S33, positive control ascorbic acid
Excerpt: The procedures of the DPPH radical scavenging test were the same as Zhong. Ascorbic acid was used as the positive control.

[8] = system: six bacteria (B. subtilis, E. profundum, E. faecalis, S. aureus, MRSA, A. baumannii); assay: Antibacterial assay, summary over the sensitive bacteria; assay type: cell-based
Excerpt: as §1

MIC [1] [µM]	MIC [2] [µM]	MIC [3] [µM]	MIC [4] [µM]	MIC [5] [µM]	MIC [6] [µM]	IC50 [7] [µM]	MIC ([8]; range over six inhibited bacteria) [µM]	Structure (SMILES)	inhibitory activity against bacteria (in words) ([8]; five Gram-positive bacteria (B. subtilis, E. profundum, E. faecalis, S. aureus and MRSA) and one Gram-negative bacterium (A. baumannii))
0.03 (≈ 0.00994 µg/mL)	0.2 (≈ 0.0663 µg/mL)	0.8 (≈ 0.265 µg/mL)	0.4 (≈ 0.133 µg/mL)	0.8 (≈ 0.265 µg/mL)	1.6 (≈ 0.53 µg/mL)	–	–	O=C(O)c1cn(C2CC2)c2cc(N3CCNCC3)c(F)cc2c1=O [ciprofloxacin, Ciprofloxacin, reference compound]	–
0.1 (≈ 0.0228 µg/mL)	25 (≈ 5.71 µg/mL)	25 (≈ 5.71 µg/mL)	50 (≈ 11.4 µg/mL)	25 (≈ 5.71 µg/mL)	12.5 (≈ 2.85 µg/mL)	48.9 ± 9.8	0.1 to 50 (≈ 0.0228 to 11.4 µg/mL)	Cc1cc(O)cc2oc3cc(O)cc(C)c3c12 [Compound 10, 3,7-dihydroxy-1,9-dimethyldibenzofuran]	displayed inhibitory activity
> 200	100 (≈ 26 µg/mL)	> 200	> 200	> 200	> 200	–	–	COc1c(O)cc(C)cc1Oc1cc(C)cc(O)c1 [Compound 11, 2-methoxyl cordyol C]	–

Further lines, the molecule ahead of its results:

Structure (SMILES)	MIC [1] [µM]	MIC [2] [µM]	MIC [3] [µM]	MIC [4] [µM]	MIC [5] [µM]	MIC [6] [µM]	IC50 [7] [µM]	MIC ([8]; range over six inhibited bacteria) [µM]	inhibitory activity against bacteria (in words) ([8]; five Gram-positive bacteria (B. subtilis, E. profundum, E. faecalis, S. aureus and MRSA) and one Gram-negative bacterium (A. baumannii))
CCC(C)C=C(C)C=CC(=O)Cc1cc(O)c(C)c(O)c1C(=O)O (stereo not shown) [Compound 1, subversin A]	> 200	100 (≈ 33.2 µg/mL)	> 200	> 200	> 200	> 200	–	–	–
O=C1O[C@H]([C@@H](O)CO)C(O)=C1O [Ascorbic acid, reference compound]	–	–	–	–	–	–	16.7 ± 0.7	–	–
